Holding throughout (type): functional
One test relates to Staphylococcus aureus. Briefly: Antibacterial activity against Staphylococcus aureus MB2865 by broth microdilution technique. For orientation: Dilution methods test growth across graded concentrations, often in twofold steps.
A further test deals with Klebsiella pneumoniae. Kind of test: Antibacterial activity against Klebsiella pneumoniae MB4005 by broth microdilution technique.
The next test has as its system Escherichia coli. Briefly: Antibacterial activity against Escherichia coli MB2884 by broth microdilution technique.
In a further test the test system is Streptococcus pneumoniae. Briefly: Antibacterial activity against Streptococcus pneumoniae CL2883 by broth microdilution technique.
A further test deals with Enterococcus faecalis. Briefly: Antibacterial activity against Enterococcus faecalis MB5407 by broth microdilution technique.
The next test has as its system Haemophilus influenzae. Briefly: Antibacterial activity against Haemophilus influenzae MB5363 by broth microdilution technique.

SMILES strings stand for the structures. Converted amounts (≈) assume the structure as drawn.

Regarding `CC[C@H]1OC(=O)[C@H](C)[C@@H](O[C@H]2C[C@@](C)(OC)[C@@H](O)[C@H](C)O2)[C@H](C)[C@@H](O[C@@H]2O[C@H](C)C[C@H](N(C)C)[C@H]2O)[C@](C)(O)C[C@@H](C)N(C)C[C@H](C)[C@@H](O)[C@]1(C)O` [L-701677], the MIC worked out at 0.5 µg/mL (≈ 0.668 µM) against Staphylococcus aureus; 1 µg/mL (≈ 1.34 µM) in the test on Klebsiella pneumoniae; 1 µg/mL (≈ 1.34 µM) with Escherichia coli; 0.03 µg/mL (≈ 0.0401 µM) against Streptococcus pneumoniae; 2 µg/mL (≈ 2.67 µM) with Enterococcus faecalis; 1 µg/mL (≈ 1.34 µM) against Haemophilus influenzae.

On to `CC[C@H]1OC(=O)[C@H](C)[C@@H](O[C@H]2C[C@@](C)(OC)[C@@H](O)[C@H](C)O2)[C@H](C)[C@@H](O[C@@H]2O[C@H](C)C[C@H](N(C)C)[C@H]2O)[C@](C)(O)C[C@@H](C)CN(C)[C@H](C)[C@@H](O)[C@]1(C)O` [AZITHROMYCIN], for which the MIC in the test on Staphylococcus aureus came to 1 µg/mL (≈ 1.34 µM); against Klebsiella pneumoniae, 2 µg/mL (≈ 2.67 µM); with Escherichia coli it was 1 µg/mL (≈ 1.34 µM); against Streptococcus pneumoniae, 0.03 µg/mL (≈ 0.0401 µM); with Enterococcus faecalis it was 4 µg/mL (≈ 5.34 µM); in the test on Haemophilus influenzae it was 0.5 µg/mL (≈ 0.668 µM).

As to `CC[C@H]1OC(=O)[C@H](C)[C@@H](O[C@H]2C[C@@](C)(OC)[C@@H](O)[C@H](C)O2)[C@H](C)[C@@H](O[C@@H]2O[C@H](C)C[C@H](N(C)C)[C@H]2O)[C@](C)(O)C[C@@H](C)C(=O)[C@H](C)[C@@H](O)[C@]1(C)O` [ERYTHROMYCIN], the MIC amounted to 0.25 µg/mL (≈ 0.341 µM) against Staphylococcus aureus; 32 µg/mL (≈ 43.6 µM) against Klebsiella pneumoniae; 32 µg/mL (≈ 43.6 µM) with Escherichia coli; 0.02 µg/mL (≈ 0.0273 µM) in the test on Streptococcus pneumoniae; 1 µg/mL (≈ 1.36 µM) against Enterococcus faecalis; 2 µg/mL (≈ 2.73 µM) in the test with Haemophilus influenzae.

`CC[C@H]1OC(=O)[C@H](C)[C@@H](O[C@H]2C[C@@](C)(OC)[C@@H](N)[C@H](C)O2)[C@H](C)[C@@H](O[C@@H]2O[C@H](C)C[C@H](N(C)C)[C@H]2O)[C@](C)(O)C[C@@H](C)N(C)C[C@H](C)[C@@H](O)[C@]1(C)O`: the MIC against Staphylococcus aureus was 1 µg/mL (≈ 1.34 µM); against Klebsiella pneumoniae it was 0.13 µg/mL (≈ 0.174 µM); in the test on Escherichia coli, 0.13 µg/mL (≈ 0.174 µM); against Streptococcus pneumoniae it was not above 0.06 µg/mL; with Enterococcus faecalis it was 2 µg/mL (≈ 2.67 µM); with Haemophilus influenzae, 0.25 µg/mL (≈ 0.334 µM).

Source of the values: ChEMBL document CHEMBL3865804, “A Gestalt approach to Gram-negative entry” (2016).
